Measurements from US6855712B2, “Combination of benzoquinazoline antifolates and protecting agents” (SmithKline Beecham Corporation, priority 1992, dated 2005).

Tests used:
[1] = tested on: beagle dogs; experiment: Dog toxicity of Compound A given as iv bolus for five consecutive days, with or without oral folic acid or leucovorin; format: in vivo
[2] = tested on: human tumor GC3TK; experiment: Mouse antitumor: human tumor GC3TK in the subrenal capsule of nude mice, Compound A ip bolus for five days; format: in vivo

## Cc1nc2ccc3ccc(CNc4ccc5c(c4)CN([C@@H](CCC(=O)O)C(=O)O)C5=O)cc3c2c(=O)[nH]1 [Compound A, (S)-2-(5-(((1,2-Dihydro-3-methyl-1-oxobenzo[f]quinazolin-9-yl)methyl)amino)-1-oxo-2-isoindolinyl)glutaric acid]
[1]; 8 mg/kg iv bolus for five consecutive days, alone
  lethality: lethal
[1]; 10 mg/kg iv 30 minutes after oral leucovorin (Wellcovorin) 10 mg/kg
  deaths: no deaths occurred
[1]; 10 mg/kg iv 30 minutes after oral leucovorin (Wellcovorin) 50 mg/kg
  deaths: no deaths occurred
[1]; 10 mg/kg iv 30 minutes after oral leucovorin (Wellcovorin) 100 mg/kg
  deaths: no deaths occurred
[1]; 10 mg/kg iv 30 minutes after oral leucovorin (Wellcovorin) 200 mg/kg
  deaths: no deaths occurred
[1]; 10 mg/kg iv, five consecutive days, given alone
  lethality: lethal
[1]; 20 mg/kg iv bolus 30 minutes after oral folic acid 50 mg/kg
  lethality: not lethal
[2]; 3.2 mg/kg Compound A, folic acid 0 mg/kg, experiment with 50 mg/kg folic acid
  Mouse antiumor (% I): 100 % I
[2]; 3.2 mg/kg Compound A, folic acid 0 mg/kg, experiment with 500 mg/kg folic acid
  Mouse antitumor (% I): 89 % I
[2]; 3.2 mg/kg Compound A, folic acid 50 mg/kg
  Mouse antiumor (% I): 100 % I
[2]; 3.2 mg/kg Compound A, folic acid 500 mg/kg
  Mouse antitumor (% I): 78 % I
[2]; 3.2 mg/kg Compound A, leucovorin 0 mg/kg
  Mouse antitumor (% I): 100 % I
[2]; 3.2 mg/kg Compound A, leucovorin 200 mg/kg
  Mouse antitumor (% I): 100 % I
[2]; 3.2 mg/kg ip bolus for five days, no protectant
  inhibition of tumor growth: complete inhibition of tumor growth
[2]; 10 mg/kg Compound A, folic acid 0 mg/kg, experiment with 50 mg/kg folic acid
  Mouse antitumor (% I): >100 % I
[2]; 10 mg/kg Compound A, folic acid 0 mg/kg, experiment with 500 mg/kg folic acid
  Mouse antitumor (% I): >100 % I
[2]; 10 mg/kg Compound A, folic acid 50 mg/kg
  Mouse antitumor (% I): >100 % I
[2]; 10 mg/kg Compound A, folic acid 500 mg/kg
  Mouse antitumor (% I): >100 % I
[2]; 10 mg/kg Compound A, leucovorin 0 mg/kg
  Mouse antitumor (% I): >100 % I
[2]; 10 mg/kg Compound A, leucovorin 200 mg/kg
  Mouse antitumor (% I): >100 % I
[2]; 10 mg/kg ip bolus for five days, no protectant
  inhibition of tumor growth: complete inhibition of tumor growth
[2]; 50 mg/kg folic acid orally 30 minutes prior to the ip bolus dose of Compound A (3.2 or 10 mg/kg)
  inhibition of tumor growth: complete inhibition of tumor growth
[2]; 200 mg/kg leucovorin orally 30 minutes prior to the ip bolus dose of Compound A (3.2 or 10 mg/kg)
  inhibition of tumor growth: complete inhibition of tumor growth
[2]; another experiment, 3.2 mg/kg, absence of protectant
  inhibition: 89%
[2]; another experiment, 10 mg/kg, absence of protectant
  growth inhibition: complete growth inhibition
[2]; another experiment, 500 mg/kg folic acid orally 30 min prior to Compound A
  tumor growth inhibition versus absence of folic acid: not significantly different
